The values below are quoted from earlier work in patent US5603954A (priority 1995, dated 1997).

The conditions of data set [1]: metabolites appear after dosing in the plasma.
In data set [2] the test system is patients with chronic peripheral arterial disease.

The structures appear in SMILES notation.

Regarding `CC(=O)CCCCn1c(=O)c2c(ncn2C)n(C)c1=O` [pentoxifylline, 3,7-dihydro-3,7-dimethyl-1-(5-oxohexyl)-1H-purine-2,6-dione], the first-pass effect result in data set [1] is “undergoes a first-pass effect”. In data set [2], the “blood flow to the affected microcirculation” value is on record as “increases the blood flow” and the tissue oxygenation entry is listed as “enhances tissue oxygenation”.
